In one data set the test system is human PBMCs. Kind of data set: Human PBMC cytokine response assay (IFN-γ and IFN-α in cell-free medium by ELISA), with or without cPLGA. Type of data set: cell-based. The note with it: for IFN-α induction (FIG. 10), in words: PBMCs from 8 donors, 20 μg/ml, 24 h; for IFN-γ induction, in words: used alone.
A further data set concerns CD19+ B cells. Kind of data set: Human B cell proliferation assay (3H-thymidine incorporation). The note with it: purified human B cells, 5 μg/ml, 96 h. For orientation: Incorporation of labelled thymidine or its analogues reports DNA synthesis.
Where [1] appears, read: Example 59, 0.8 ug/ml, donor 48.
Where [2] appears, read: Example 59, 0.8 ug/ml, donor 177.
The mark [3] stands for this setting: Example 59, 0.8 ug/ml, donor 272.
[4] abbreviates: Example 59, 0.8 ug/ml, donor 273.
Where [5] appears, read: Example 59, 0.8 ug/ml, mean of four donors.
Setting [6] is: Example 59, 4 ug/ml, mean of four donors.
[7] abbreviates: Example 59, 20 ug/ml, donor 177.
Where [8] appears, read: Example 59, 20 ug/ml, donor 272.
Setting [9] is: Example 59, 20 ug/ml, donor 273.
Setting [10] is: Example 59, 20 ug/ml, mean of four donors.
[11] abbreviates: Table 24, mean of donors 28234-28237.
Setting [12] is: Table 25, mean of donors 28250-28253.

For the substance “(5′-TCGATCG-3′-HEG)2-glycerol-HEG-5′-TCGATCG-3′ [Compound C-145]”, in the data set on human PBMCs, the “IFN-α induction (FIG. 10), in words” value is “induce high levels of IFN-α”. In addition, in the data set with CD19+ B cells, the “B cell proliferation (FIG. 11), in words” value was “induce very little B cell proliferation”.
“(5′-TCGACGT-3′-HEG)2-glycerol-HEG-5′-TCGACGT-3′ [Compound C-101]”: the IFN-α stood at 52 pg/mL with human PBMCs (Example 58, 0.8 ug/ml, donor 1); 52 pg/mL in the data set on human PBMCs (Example 58, 0.8 ug/ml, donor 2); 52 pg/mL with human PBMCs (Example 58, 0.8 ug/ml, donor 3); 52 pg/mL with human PBMCs (Example 58, 0.8 ug/ml, donor 4); 52 pg/mL in the data set on human PBMCs (Example 58, 4 ug/ml, donor 1); 52 pg/mL in the data set on human PBMCs (Example 58, 4 ug/ml, donor 2). Moreover, the IFN-α in the data set with human PBMCs (Example 58, 4 ug/ml, donor 3) came to 59 pg/mL; with human PBMCs (Example 58, 4 ug/ml, donor 4), 204 pg/mL; in the data set with human PBMCs (Example 58, 20 ug/ml, donor 1) it was 2330 pg/mL; in the data set on human PBMCs (Example 58, 20 ug/ml, donor 2), 109 pg/mL; in the data set with human PBMCs (Example 58, 20 ug/ml, donor 3), 215 pg/mL; with human PBMCs (Example 58, 20 ug/ml, donor 4), 157 pg/mL. The IFN-α in the data set with human PBMCs (setting [1]) stood at 102 pg/mL; in the data set with human PBMCs (setting [2]) it was 102 pg/mL; in the data set with human PBMCs (setting [3]), 185 pg/mL; with human PBMCs (setting [4]), 102 pg/mL; in the data set on human PBMCs (Example 59, 4 ug/ml, donor 48), 818 pg/mL; in the data set with human PBMCs (Example 59, 4 ug/ml, donor 177), 3631 pg/mL. Also, the IFN-α was 604 pg/mL in the data set on human PBMCs (Example 59, 4 ug/ml, donor 272); 102 pg/mL in the data set with human PBMCs (Example 59, 4 ug/ml, donor 273); 2212 pg/mL in the data set with human PBMCs (Example 59, 20 ug/ml, donor 48); 4277 pg/mL in the data set with human PBMCs (setting [7]); 642 pg/mL in the data set on human PBMCs (setting [8]); 102 pg/mL in the data set on human PBMCs (setting [9]). In addition, the IFN-α is 16 pg/mL with human PBMCs (Table 24, donor 28234); 249 pg/mL with human PBMCs (Table 24, donor 28235); 1354 pg/mL with human PBMCs (Table 24, donor 28236); 8566 pg/mL with human PBMCs (Table 24, donor 28237). Further, the IFN-α mean with human PBMCs (Example 58, 0.8 ug/ml, mean of four individuals) came out at 52 pg/mL; in the data set with human PBMCs (Example 58, 4 ug/ml, mean of four individuals) it was 92 pg/mL; in the data set with human PBMCs (Example 58, 20 ug/ml, mean of four individuals), 703 pg/mL; in the data set with human PBMCs (setting [5]), 123 pg/mL; with human PBMCs (setting [6]) it was 1289 pg/mL; in the data set on human PBMCs (setting [10]), 1808 pg/mL. The IFN-α mean with human PBMCs (setting [11]) amounted to 2546 pg/mL. Further, in the data set on human PBMCs, the “IFN-α induction (FIG. 10), in words” value is recorded as “induce high levels of IFN-α”. In addition, the IFN-γ with human PBMCs (Table 24, donor 28234) came out at 14 pg/mL; in the data set on human PBMCs (Table 24, donor 28235), 205 pg/mL; in the data set with human PBMCs (Table 24, donor 28236) it was 627 pg/mL; with human PBMCs (Table 24, donor 28237) it was 2612 pg/mL. In the data set on human PBMCs (setting [11]), this substance showed an IFN-γ mean of 865 pg/mL. Besides, the IFN-a in the data set on human PBMCs (Table 25, donor 28250) came out at 540 pg/mL; in the data set with human PBMCs (Table 25, donor 28251) it was 1472 pg/mL; with human PBMCs (Table 25, donor 28252), 509 pg/mL; with human PBMCs (Table 25, donor 28253), 2645 pg/mL. Moreover, the IFN-g was 224 pg/mL in the data set on human PBMCs (Table 25, donor 28250, polynucleotides/spacers at amounts equivalent to the CIC, spacers alone 9 uM); 63 pg/mL with human PBMCs (Table 25, donor 28251); 180 pg/mL in the data set with human PBMCs (Table 25, donor 28252); 146 pg/mL with human PBMCs (Table 25, donor 28253). For the same substance, the IFN-a mean with human PBMCs (setting [12]) is 1291 pg/mL. Also, the IFN-g mean in the data set with human PBMCs (setting [12]) is 153 pg/mL. Further, in the data set on CD19+ B cells, the “B cell proliferation (FIG. 11), in words” value is on record as “induce very little B cell proliferation”.
For the substance “(5′-TCGTTCG-3′-HEG)2-glycerol-HEG-5′-TCGTTCG-3′ [Compound C-158]”, in the data set with human PBMCs, the “IFN-α induction (FIG. 10), in words” value is on record as “induce high levels of IFN-α”. Further, the “B cell proliferation (FIG. 11), in words” value in the data set with CD19+ B cells is recorded as “induce B cells to proliferate”.
For “(5′-TCGACGT-3′-HEG)3-trebler-HEG-5′-TCGACGT-3′ [Compound C-125]” the same measures were “induce high levels of IFN-α” and “induce very little B cell proliferation”.
Regarding “5′-TCGATTT-3′-HEG-5′-TCGATTT-3′-HEG-5′-TCGATTT-3′ [Compound C-74]”, the “B cell proliferation (FIG. 11), in words” value in the data set on CD19+ B cells is given as “induced moderate levels of B cell proliferation”.
Take “5′-TCGTCGA-3′-C3-5′-TCGTCGA-3′-C3-5′-TCGTCGA-3′ [Compound C-90]”: the IFN-α in the data set on human PBMCs (Table 24, donor 28234) was determined as 16 pg/mL; in the data set on human PBMCs (Table 24, donor 28235), 46 pg/mL; with human PBMCs (Table 24, donor 28236) it was 117 pg/mL; in the data set on human PBMCs (Table 24, donor 28237), 345 pg/mL. For the same substance, the IFN-γ with human PBMCs (Table 24, donor 28234) came to 7 pg/mL; in the data set on human PBMCs (Table 24, donor 28235), 118 pg/mL; in the data set with human PBMCs (Table 24, donor 28236), 497 pg/mL; with human PBMCs (Table 24, donor 28237), 1586 pg/mL. The IFN-α mean with human PBMCs (setting [11]) is 131 pg/mL. In the data set on human PBMCs (setting [11]), this substance showed an IFN-γ mean of 552 pg/mL. The “IFN-γ induction, in words” value with human PBMCs is “similar”.
Take “(5′-TCGTCGA-3′-HEG)2-glycerol-HEG-5′-AACGTTC-3′-HEG-5′-TCGACGT-3′ [Compound C-100]”: the IFN-α with human PBMCs (Table 24, donor 28234) was found to be 16 pg/mL; with human PBMCs (Table 24, donor 28235), 16 pg/mL; in the data set on human PBMCs (Table 24, donor 28236) it was 398 pg/mL; with human PBMCs (Table 24, donor 28237), 193 pg/mL. The IFN-γ in the data set on human PBMCs (Table 24, donor 28234) was found to be 27 pg/mL; in the data set on human PBMCs (Table 24, donor 28235), 183 pg/mL; in the data set on human PBMCs (Table 24, donor 28236), 490 pg/mL; in the data set on human PBMCs (Table 24, donor 28237), 1907 pg/mL. In the data set on human PBMCs (setting [11]), the IFN-α mean was 156 pg/mL. Moreover, the IFN-γ mean in the data set with human PBMCs (setting [11]) came to 652 pg/mL.
As to “5′-TCCATTT-3′-HEG-5′-AACGTTC-3′-HEG-5′-TGACGTT-3′ [Compound C-61]”, the IFN-α is 3 pg/mL in the data set on human PBMCs (Table 13, donor 28156); 0 pg/mL in the data set with human PBMCs (Table 13, donor 28157); 47 pg/mL in the data set on human PBMCs (Table 13, donor 28158); 0 pg/mL with human PBMCs (Table 13, donor 28159). Further, the IFN-γ amounted to 92 pg/mL in the data set with human PBMCs (Table 13, donor 28156); 179 pg/mL in the data set on human PBMCs (Table 13, donor 28157); 35 pg/mL in the data set with human PBMCs (Table 13, donor 28158); 63 pg/mL with human PBMCs (Table 13, donor 28159). The same substance gave an IFN-α mean with human PBMCs (Table 13, mean of donors) of 13 pg/mL. For the same substance, in the data set with human PBMCs (Table 13, mean of donors), the IFN-γ mean was 92 pg/mL. In the data set on human PBMCs (formulated with cPLGA), the “IFN-γ induction when formulated with cPLGA, in words” value is “induced IFN-γ when formulated with cPLGA”.
Regarding “(5′-TCGACGT-HEG)2-glycerol-HEG-5′-TTGGCCAAGCTTGGCCAA (SEQ ID NO: 116) (DNA, all phosphorothioate, methylation of C not given here; Two heptamer DNA arms joined by HEG spacers and glycerol branching to the chain) [Compound C-178]”, the IFN-α was determined as 336 pg/mL in the data set on human PBMCs (setting [1]); 1150 pg/mL with human PBMCs (setting [2]); 149 pg/mL in the data set on human PBMCs (setting [3]); 102 pg/mL with human PBMCs (setting [4]); 16300 pg/mL in the data set with human PBMCs (Example 59, 4 ug/ml, donor 48); 8304 pg/mL in the data set on human PBMCs (Example 59, 4 ug/ml, donor 177). Besides, the IFN-α is 1677 pg/mL with human PBMCs (Example 59, 4 ug/ml, donor 272); 1732 pg/mL in the data set with human PBMCs (Example 59, 4 ug/ml, donor 273); 13946 pg/mL in the data set with human PBMCs (Example 59, 20 ug/ml, donor 48); 19973 pg/mL with human PBMCs (setting [7]); 15050 pg/mL in the data set on human PBMCs (setting [8]); 3971 pg/mL in the data set on human PBMCs (setting [9]). For the same substance, the IFN-α mean was 434 pg/mL in the data set on human PBMCs (setting [5]), 7003 pg/mL in the data set on human PBMCs (setting [6]) and 13235 pg/mL in the data set with human PBMCs (setting [10]).
Take “5′-TCGTC-3′-HEG-5′-TCGTC-3′-HEG-5′-TCGTC-3′-HEG-5′-TCGTC-3′ [Compound C-43]”: the IFN-α with human PBMCs (Table 10, donor 28042) amounted to 0 pg/mL; in the data set on human PBMCs (Table 10, donor 28043), 14 pg/mL; with human PBMCs (Table 10, donor 28044) it was 20 pg/mL; in the data set with human PBMCs (Table 10, donor 28045), 0 pg/mL. Moreover, the IFN-γ in the data set with human PBMCs (Table 10, donor 28042) came out at 128 pg/mL; with human PBMCs (Table 10, donor 28043) it was 536 pg/mL; with human PBMCs (Table 10, donor 28044), 566 pg/mL; in the data set on human PBMCs (Table 10, donor 28045) it was 16 pg/mL. In the data set on human PBMCs (Table 10, mean of donors), this substance showed an IFN-α mean of 8 pg/mL. This substance displayed an IFN-γ mean with human PBMCs (Table 10, mean of donors) of 312 pg/mL. For the same substance, in the data set with human PBMCs (formulated with cPLGA), the “activity when formulated with cPLGA, in words” value is “induced considerable IFN-γ and IFN-α when formulated with cPLGA”. Further, the “IFN-γ induction, in words” value with human PBMCs was “induce IFN-γ when used alone”.
